Consider 27 molecules from patent US20120142771A1, “BIPHENYLACETAMIDE DERIVATIVE” (Dainippon Sumitomo Pharma Co., Ltd., priority 2008, published 2012).

For test [1], the system named is maximum electroshock seizure (MES) model. Description: Maximum electroshock seizure (MES) model test. Type of test: in vivo, mice. The following applies: for responders at 50 mg/kg / responders at 100 mg/kg: Mus musculus, po, 1 h, Slc: ddY male mice, 3 per group, electrical stimulation 1 hour after administration, inhibition of hind limb extension, read-out: MES (positive number/tested number) (converted); for responders at 50 mg/kg: 50 mg/kg oral; for responders at 100 mg/kg: 100 mg/kg oral; for anticonvulsant action in maximum electroshock seizure (MES) model test: mice, oral 50 or 100 mg/kg, 1 hour after administration. The method in brief:
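Tonic hind-limb extension was elicited by corneal electroshock (60 Hz, 25 mA, 0.2 s) 1 h after oral dosing. Test compounds were given at 50 or 100 mg/kg to groups of 3 male Slc: ddY mice (20-30 g), vehicle controls receiving 0.5% tragacanth or 0.5% methylcellulose solution.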

Test [2] deals with subcutaneously pentetrazol-injected model (scPTZ). In words: Subcutaneously pentetrazol-injected model (scPTZ) test. Type of test: in vivo, mice. Conditions: pentetrazol 85 mg/kg s.c. after 1 hour; for responders at 50 mg/kg / responders at 100 mg/kg: Mus musculus, po, 1 h, Slc: ddY male mice, 3 per group, observed 30 minutes for clonic convulsion, read-out: scPTZ (positive number/tested number) (converted); for responders at 50 mg/kg: 50 mg/kg oral; for responders at 100 mg/kg: 100 mg/kg oral; for anticonvulsant action in subcutaneously pentetrazol-injected model (scPTZ) test: mice, oral 50 or 100 mg/kg. The method in brief: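 Pentetrazol (85 mg/kg, s.c.) was injected one hour after oral test compound at 50 or 100 mg/kg in groups of three male Slc:ddY mice weighing 20-30 g; vehicle controls got 0.5% tragacanth or 0.5% methylcellulose.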

Consider `NC(=O)C(F)c1ccccc1-c1cccc(F)c1` (stereo not shown) [Example 160, 2-fluoro-2-(3′-fluorobiphenyl-2-yl)acetamide], for which, in test [1], the responders at 50 mg/kg is 33.3% and the responders at 100 mg/kg was 66.7%. In addition, in test [2], the responders at 50 mg/kg is 66.7% and the responders at 100 mg/kg was 100%.
On to `CNC(=O)Cc1ccccc1-c1cccc(C(F)(F)F)c1` [Example 5, N-methyl-2-[3′-(trifluoromethyl)biphenyl-2-yl]acetamide], for which the responders at 50 mg/kg in test [1] is 0%; in test [2], 33.3%. Also, the values for the responders at 100 mg/kg in test [1] and in test [2] were 100% and 66.7%, respectively.
In the case of `CNC(=O)C(C)c1ccccc1-c1ccccc1` (stereo not shown) [Example 57, 2-(biphenyl-2-yl)-N-methyl propanamide], in test [1], the responders at 50 mg/kg is 66.7%, the responders at 100 mg/kg is 66.7% and the “anticonvulsant action in maximum electroshock seizure (MES) model test” value was “anticonvulsant action was observed”. In test [2], the responders at 50 mg/kg was 66.7%, the responders at 100 mg/kg is 66.7% and the “anticonvulsant action in subcutaneously pentetrazol-injected model (scPTZ) test” value is given as “anticonvulsant action was observed”.
Consider `NC(=O)C(O)c1ccc(F)cc1-c1ccccc1` (stereo not shown) [Example 181, 2-(5-fluorobiphenyl-2-yl)-2-hydroxyacetamide], for which the responders at 50 mg/kg in test [1] was 33.3%; in test [2] it was 0%. Besides, the responders at 100 mg/kg in test [1] was 100%; in test [2], 66.7%.
In the case of `NC(=O)Cc1cc(F)ccc1-c1ccccc1` [Example 44, 2-(4-fluorobiphenyl-2-yl)acetamide], the responders at 50 mg/kg in test [1] was 100%. Also, the responders at 100 mg/kg is 100% in test [1] and 0% in test [2].
Regarding `CCNC(=O)Cc1ccccc1-c1ccccc1Cl` [Example 18], in test [1], the responders at 50 mg/kg is 0% and the responders at 100 mg/kg was 100%. For the same molecule, the responders at 100 mg/kg in test [2] was 33.3%.
In the case of `CC(C(N)=O)c1ccccc1-c1cccc(F)c1` (stereo not shown) [Example 175, 2-(3′-fluorobiphenyl-2-yl)propanamide], in test [1], the responders at 50 mg/kg is 0% and the responders at 100 mg/kg is 66.7%. Besides, in test [2], the responders at 50 mg/kg was 0% and the responders at 100 mg/kg is 100%.
On to `CNC(=O)C(OC)c1ccccc1-c1ccc(F)cc1` (stereo not shown) [Example 204], for which, in test [1], the responders at 50 mg/kg was 0% and the responders at 100 mg/kg is 100%. For the same molecule, the responders at 100 mg/kg in test [2] was 0%.
In the case of `NC(=O)Cc1cc(F)ccc1-c1ccc(C(F)(F)F)cc1` [Example 135], the responders at 100 mg/kg in test [1] is 100%; in test [2], 0%.
As to `NC(=O)Cc1ccccc1-c1cc(F)cc(F)c1` [Example 153, 2-(3′,5′-difluorobiphenyl-2-yl)acetamide], in test [1], the responders at 50 mg/kg is 0% and the responders at 100 mg/kg was 66.7%. Also, in test [2], the responders at 50 mg/kg was 0% and the responders at 100 mg/kg was 100%.
For `NC(=O)C(O)c1cc(F)ccc1-c1cccc(F)c1` (stereo not shown) [Example 188, 2-(3′,4-difluorobiphenyl-2-yl)-2-hydroxyacetamide], in test [1], the responders at 50 mg/kg was 33.3% and the responders at 100 mg/kg is 100%. Further, in test [2], the responders at 50 mg/kg was 0% and the responders at 100 mg/kg is 66.7%.
As for `NC(=O)Cc1ccccc1-c1cc(C(F)(F)F)ccc1F` [Example 83, 2-[2′-fluoro-5′-(trifluoromethyl)biphenyl-2-yl]acetamide], in test [1], the responders at 50 mg/kg is 0% and the responders at 100 mg/kg was 66.7%. Besides, in test [2], the responders at 50 mg/kg was 33.3% and the responders at 100 mg/kg was 66.7%.
Consider `NC(=O)Cc1ccccc1-c1cc(F)ccc1F` [Example 152, 2-(2′,5′-difluorobiphenyl-2-yl)acetamide], for which, in test [1], the responders at 50 mg/kg was 100%, the responders at 100 mg/kg was 100% and the “anticonvulsant action in maximum electroshock seizure (MES) model test” value is given as “anticonvulsant action was observed”. For the same molecule, in test [2], the responders at 50 mg/kg was 66.7%, the responders at 100 mg/kg is 100% and the “anticonvulsant action in subcutaneously pentetrazol-injected model (scPTZ) test” value is reported as “anticonvulsant action was observed”.
As for `NC(=O)Cc1cc(F)ccc1-c1cccc(Cl)c1` [Example 48, 2-(3′-chloro-4-fluorobiphenyl-2-yl)acetamide], in test [1], the responders at 50 mg/kg was 33.3% and the responders at 100 mg/kg is 100%. Also, in test [2], the responders at 50 mg/kg was 33.3% and the responders at 100 mg/kg was 100%.
Consider `NC(=O)Cc1ccccc1-c1cccc(C(F)(F)F)c1` [Example 4, 2-[3′-(trifluoromethyl)biphenyl-2-yl]acetamide], for which, in test [1], the responders at 50 mg/kg was 0% and the responders at 100 mg/kg was 66.7%. Moreover, in test [2], the responders at 50 mg/kg was 0% and the responders at 100 mg/kg is 66.7%.
Regarding `NC(=O)Cc1ccc(F)cc1-c1ccc(F)cc1` [Example 122], the responders at 100 mg/kg in test [1] was 0%; in test [2], 66.7%. Moreover, the responders at 50 mg/kg in test [2] is 0%.
Regarding `NC(=O)C(F)c1ccccc1-c1ccccc1F` (stereo not shown) [Example 164, 2-fluoro-2-(2′-fluorobiphenyl-2-yl)acetamide], in test [1], the responders at 50 mg/kg is 100% and the responders at 100 mg/kg was 100%. The responders at 100 mg/kg in test [2] was 33.3%.
As for `CNC(=O)Cc1ccccc1-c1ccc(Cl)cc1` [Example 11], in test [1], the responders at 50 mg/kg was 0% and the responders at 100 mg/kg is 100%. For the same molecule, in test [2], the responders at 100 mg/kg is 33.3%.
Regarding `CC(C(N)=O)c1ccccc1-c1ccccc1` (stereo not shown) [Example 56, 2-(Biphenyl-2-yl)propanamide], in test [1], the responders at 50 mg/kg was 0% and the responders at 100 mg/kg was 100%. In test [2], the responders at 50 mg/kg was 100% and the responders at 100 mg/kg is 66.7%.
Turning to `NC(=O)Cc1ccccc1-c1cc(C(F)(F)F)cc(C(F)(F)F)c1` [Example 72], the responders at 100 mg/kg in test [1] is 66.7%; in test [2], 0%.
For `NC(=O)Cc1ccccc1-c1ccc(Cl)cc1` [Example 10], the responders at 50 mg/kg in test [1] was 33.3%. Also, the responders at 100 mg/kg in test [1] was 100%; in test [2], 33.3%.
In the case of `NC(=O)Cc1ccccc1-c1ccc(F)c(Cl)c1` [Example 65], the figures for the responders at 100 mg/kg in test [1] and in test [2] were 66.7% and 33.3%, respectively.
For `NC(=O)Cc1ccc(F)cc1-c1cc(Cl)cc(Cl)c1` [Example 150, 2-(3′,5′-dichloro-5-fluorobiphenyl-2-yl)acetamide], in test [1], the responders at 50 mg/kg is 100% and the responders at 100 mg/kg is 100%. In addition, in test [2], the responders at 50 mg/kg is 33.3% and the responders at 100 mg/kg is 100%.
Regarding `N#Cc1ccc(-c2ccccc2CC(N)=O)c(F)c1` [Example 106], the responders at 100 mg/kg in test [1] is 0%; in test [2], 66.7%.
With `CNC(=O)C(F)c1ccccc1-c1ccccc1` (stereo not shown) [Example 163], in test [1], the responders at 50 mg/kg was 33.3% and the responders at 100 mg/kg was 100%. Further, the responders at 100 mg/kg in test [2] is 0%.
In the case of `NC(=O)C(O)c1ccccc1-c1cc(F)c(F)c(F)c1` (stereo not shown) [Example 193, 2-hydroxy-2-(3′,4′,5′-trifluorobiphenyl-2-yl)acetamide], in test [1], the responders at 50 mg/kg is 100% and the responders at 100 mg/kg was 100%. For the same molecule, in test [2], the responders at 50 mg/kg was 100% and the responders at 100 mg/kg was 66.7%.
For `NC(=O)Cc1ccc(Cl)cc1-c1cccc(Cl)c1` [Example 127], the responders at 100 mg/kg in test [1] was 66.7%; in test [2], 33.3%.
